According to patent US4665082A, “Cysteine delivery system” (Cornell Research Foundation, priority 1985, dated 1987):
Entries after “also recorded” stand apart in the source; their conditions may differ.

Legend:
5-oxo-L-prolinase [1] = target: T1, 5-oxo-L-prolinase (Rattus norvegicus, UniProt P97608); test: Action of 5-oxo-L-prolinase on substrates (formation of ADP and amino acid); type: biochemical; conditions: for Reaction with the enzyme in the presence of ATP (formation of ADP and cysteine): incubation with 5-oxo-L-prolinase and ATP, FIG. 2: 5 mM substrate
T1 construct: 5-Oxo-L-prolinase was isolated from rat kidney and freed of 5-oxoproline by gel filtration; from tissue; host or cells: rat kidney
T1 sequence (P97608 1-1288): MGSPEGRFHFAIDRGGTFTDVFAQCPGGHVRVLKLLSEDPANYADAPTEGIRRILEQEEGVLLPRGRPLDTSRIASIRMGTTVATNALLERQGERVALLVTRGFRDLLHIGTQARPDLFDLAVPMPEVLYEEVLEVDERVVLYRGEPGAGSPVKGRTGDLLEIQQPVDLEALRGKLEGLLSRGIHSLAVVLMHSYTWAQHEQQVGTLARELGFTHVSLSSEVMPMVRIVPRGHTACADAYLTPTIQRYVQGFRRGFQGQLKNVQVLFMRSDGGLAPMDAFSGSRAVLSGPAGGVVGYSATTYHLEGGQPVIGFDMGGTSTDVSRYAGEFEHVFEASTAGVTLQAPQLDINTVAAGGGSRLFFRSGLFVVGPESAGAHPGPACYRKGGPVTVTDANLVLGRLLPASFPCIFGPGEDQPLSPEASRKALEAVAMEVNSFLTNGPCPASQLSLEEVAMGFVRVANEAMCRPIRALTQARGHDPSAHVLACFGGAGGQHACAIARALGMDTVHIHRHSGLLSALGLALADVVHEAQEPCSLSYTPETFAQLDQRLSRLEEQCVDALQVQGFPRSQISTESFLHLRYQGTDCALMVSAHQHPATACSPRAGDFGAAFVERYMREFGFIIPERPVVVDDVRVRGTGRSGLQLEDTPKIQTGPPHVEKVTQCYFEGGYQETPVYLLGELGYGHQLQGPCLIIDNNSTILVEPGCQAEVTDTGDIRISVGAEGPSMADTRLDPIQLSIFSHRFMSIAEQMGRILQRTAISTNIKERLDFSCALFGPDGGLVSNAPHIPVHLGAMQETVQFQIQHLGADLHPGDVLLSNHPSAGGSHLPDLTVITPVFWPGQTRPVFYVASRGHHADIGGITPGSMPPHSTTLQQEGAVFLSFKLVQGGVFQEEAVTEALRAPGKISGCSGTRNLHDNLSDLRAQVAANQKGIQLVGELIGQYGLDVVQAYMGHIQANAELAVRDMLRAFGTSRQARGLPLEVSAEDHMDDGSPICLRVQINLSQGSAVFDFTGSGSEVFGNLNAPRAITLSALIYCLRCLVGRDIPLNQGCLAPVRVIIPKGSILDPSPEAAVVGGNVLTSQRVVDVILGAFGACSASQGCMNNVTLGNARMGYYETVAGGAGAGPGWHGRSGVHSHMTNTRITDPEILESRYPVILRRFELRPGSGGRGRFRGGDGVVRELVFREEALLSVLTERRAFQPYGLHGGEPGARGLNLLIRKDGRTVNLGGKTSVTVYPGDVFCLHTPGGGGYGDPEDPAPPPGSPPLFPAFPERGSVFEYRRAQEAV
Procedure: (§1) In the experiments the reaction mixtures were made up to contain (final volume 0.5 ml) 100 mM Na Hepes (Na salt of N-2-hydroxyethylpiperizine-N'-2ethanesulfonic acid) buffer (pH 8.0), 150 mM KCl, 8 mM MgCl2, 2 mM phosphoenolpyruvate, 5 mM ATP (adenosine triphosphate), pyruvate kinase, in excess, 20 micrograms of 5-oxoprolinase, and the substrate as indicated.
(§2) The L- and D-isomers of 2-oxothiazolidine-4-carboxylate were synthesized by the method set out in Kaneko et al, Bull, Chem. Soc. (Japan) vol. 37, pp. 242-4 (1964) as modified by the method of Shah et al, Cancer Research vol. 39, pp. 3942-7 (1979). 5-Oxo-L-prolinase was isolated from rat kidney and freed of 5-oxoproline by gel filtration. Other chemicals and materials were obtained commercially.
(§3) After incubation for 30 min. at 37° C., the reaction mixtures were treated with 0.1 volume of 1M HCl, and placed at 0° C. for 5 min.; and an equivalent volume of 1M 2-amino-2-hydroxylmethyl-1,3,-propanediol was added. Portions were analyzed for amino acids by use of a Durrum Model 500 amino acid analyzer. Cysteine was also determined in some experiments by reaction with 5,5'-dithiobis(2-nitrobenzoate (DTNB).
At the indicated intervals portions were analyzed for ADP by the method indicated in the Table footnote, and for cysteine by reaction with DTNB.

5-oxo-L-prolinase [2] = target: T1, 5-oxo-L-prolinase; test: Inhibition of utilization of 5-oxo-L-proline (glutamate formation) by the purified enzyme; type: biochemical; conditions: 1 mM 5-oxo-L-proline; under these conditions (1, 5, 10 mM)
Procedure: as §1, §2, §3
Energy for the reaction is supplied by the cleavage of ATP. […] The ratio of ADP to cysteine produced increased with time due undoubtedly to the loss of cysteine due to oxidation.

hepatic glutathione = test: Hepatic glutathione level after injection; type: in vivo, mice; conditions: for level of hepatic glutathione relative to controls: mice fasted overnight, intraperitoneal injection (Na salt, 6.5 mmol/kilo; D-isomer equivalent doses)
Procedure: The effect of injecting mice with L-2-oxothiazolidine-4-carboxylate on the level of hepatic glutathione was studied. […] The maximal effect was observed about 4 hours after injection. […] These findings are indicative of in vivo formation of cysteine after administration of L-2-oxothiazolidine-4-carboxylate.
Mice fastened overnight were injected intraperitoneally with NaCl (controls; dashed line) or with Na L-2-oxothiazolidine-4-carboxylate (6.5 mmol/kilo). At intervals, the mice were sacrificed and the excised liver was homogenized in 5 volumes of 1% picric acid. After centrifugation, the protein-free supernatant solutions were analyzed for glutathione by the method of Tietze, Anal. Biochem 27, 502-22 (1969). Analyses were carried out in duplicate. In a number of instances, these values were checked by the 2-vinylpyridine procedure of Griffith, Anal. Biochem. 106; 207-12 (1980); good agreement between the two methods was observed. In the figure, the points are mean values and the bars indicate the average deviation from the mean. The numbers in parentheses give the number of animals used. The value for the controls was 4.40±0.9 umol/g.

5-oxoproline metabolism = test: In vivo metabolism of 5-oxo-L-[14C]proline (respiratory 14CO2, urinary radioactivity); design: species or system mice
Procedure: (§4) The in vitro results showing that L-2-oxothiazolidine-4-carboxylate inhibits utilization of 5-oxoproline were confirmed by in vivo experiments. In the latter, animals were injected with 5-oxo-L-[^14 C]proline and the respiratory [^14 CO2 ] produced was collected and measured for several hours. […] However, L-2-oxothiazolidine-4-carboxylate is a much more efficient inhibitor.
(§5) FIG. 3 depicts the inhibition of 5-oxoproline metabolism by L-2-oxothiazolidine-4-carboxylate. Mice fasted overnight were injected intraperitoneally with NaCl (Curve 1; open symbols; controls) or with Na L-2-oxothiazolidine-4-carboxylate (2.5 mmol/kilo) (Curve 2; closed symbols). After 10 min., the mice were injected subcutaneously with 5-oxo-L-[^14 C]proline (A) or with L-[^14 C]glutamate (B) (0.02 mmol; 1.1×10^6 cpm). The mice were then placed in metabolic chambers and the respiratory CO2 was collected in ethanolamine/methanol, 1:4 (vol/vol). In A, each curve represents the results on 3 animals; the points are mean values and the bars represent standard deviations from the mean. In B, each curve represents the average of closely-agreeing results obtained from 2 animals.

metabolism of glutamate = test: In vivo metabolism of L-[14C]glutamate (respiratory 14CO2); conditions: mice, injection of L-[14C]glutamate
Procedure: as §4, §5

liver glutathione = test: Liver glutathione in animals depleted of hepatic glutathione (acetoaminophenol); type: in vivo; conditions: mice depleted of hepatic glutathione, compound given even two hours after acetoaminophenol
Procedure: Administration of this compound therefore provides a way of getting cysteine into cells. One cannot give cysteine itself without complications since this amino acid is toxic extracellularly. However, when the L-oxothiazolidine compound is injected it enters the cell where it is split giving rise to cysteine within the cell. In a number of clinical situations, for example, after poisoning with excessive pain-killing drugs, e.g., those containing active ingredients known as N-acetyl-para-aminophenol, paracetamol, and acetaminophen, the liver glutathione levels decrease markedly. When cysteine is supplied to liver cells, additional glutathione can be synthesized and thus serve usefully in detoxifying the offending drug. Therefore, L-2-oxothiazolidine-4-carboxylate serves as an intracellular delivery system for cysteine and has potential as a therapeutic agent in situations in which there is depletion of liver glutathione. After acetoaminophenol is given to experimental animals such as mice, the liver glutathione declines rapidly because it is extensively utilized by reaction with the drug. […] For human treatment the L-isomer, preferably in the form of its neutral salt is administered directly into the gastro-intestinal tract or introduced intravenously.

[3] = substrate 2 mM, 30 min at 37° C.

With `O=C1CC[C@@H](C(=O)O)N1` [5-Oxo-L-proline, 5-oxo-L-proline] the “calculated Vmax value” (5-oxo-L-prolinase [1]; natural substrate compared with the L-isomer) was “higher than that found for the L-isomer”.
`O=C1N[C@@H](C(=O)O)CS1` [D-2-oxothiazolidine-4-carboxylate] was tested, and the “Reaction with the enzyme in the presence of ATP (formation of ADP and cysteine)” value (5-oxo-L-prolinase [1]; 5 mM ATP, listed as D-isomer) was “absence of reaction; also recorded: No reaction was observed”, the “Products Formed: Amino Acid (determined after reduction with KBH4 and reaction with iodoacetamide)” value (5-oxo-L-prolinase [1]; substrate 5 mM, footnote e: less than 20 nmol) was 0 nmol and the “inhibition of glutamate formation (in words)” value (5-oxo-L-prolinase [2]) was “did not inhibit glutamate formation”. The “level of hepatic glutathione relative to controls” value (hepatic glutathione) was “No such stimulation was observed”.
For `O=C1NC[C@@H](C(=O)O)N1` [L-2-imidazolidone-4-carboxylate], the “Products Formed: ADP” value (5-oxo-L-prolinase [1]; substrate 2 mM, 5 mM ATP, 20 micrograms enzyme, 30 min at 37° C., pH 8.0, pyruvate kinase-lactate dehydrogenase coupled assay) was 930 nmol and the “Products Formed: Amino Acid” value (5-oxo-L-prolinase [1]; substrate 2 mM, footnote f: less than 5 nmol) was 0 nmol.
In the case of `O=C1N[C@H](C(=O)O)CS1` [L-2-oxothiazolidine-4-carboxylate], the “apparent Km value” (5-oxo-L-prolinase [1]; compared with the natural substrate 5-oxo-L-proline) is reported as “somewhat lower than that found for the natural substrate”, the “Reaction with the enzyme in the presence of ATP (formation of ADP and cysteine)” value (5-oxo-L-prolinase [1]; 5 mM ATP) is reported as “rapid formation of ADP and cysteine” and the “Products Formed: Amino Acid (after conversion to cystine)” value (5-oxo-L-prolinase [1]; [3]) is reported as 463 nmol. For the same compound, the “Products Formed: Amino Acid (determined after reduction with KBH4 and reaction with iodoacetamide)” value (5-oxo-L-prolinase [1]; [3]) was 466 nmol, the “injected dose (radioactivity) excreted in urine” value (5-oxoproline metabolism; animals treated with L-isomer and injected with 5-oxo-L-[14C]proline, none in urine of controls) was “about 16%” and the “activity on a molar basis compared with L-2-imidazolidine-4-carboxylate (inhibition of 5-oxoproline metabolism in vivo)” value (5-oxoproline metabolism; in vivo comparison) was “at least four times more active”. For the same compound, the “formation of [14CO2] from injected 5-oxo-L-[14C]proline” value (5-oxoproline metabolism; mice, Na salt 2.5 mmol/kilo intraperitoneally, 10 min before 5-oxo-L-[14C]proline s.c.) was “marked decrease”, the “effect on the metabolism of glutamate” value (metabolism of glutamate) was “does not have a significant effect” and the “free cysteine in acid extracts of the livers” value (hepatic glutathione; amino acid analyses after reduction by dithiothreitol and derivatization with 2-vinylpyridine) was “No free cysteine was detected”. The “level of hepatic glutathione relative to controls” value (hepatic glutathione) was “about twice those of the controls”, the “liver glutathione after depletion” value (liver glutathione) was “restoration of normal hepatic glutathione levels” and the “liver glutathione after depletion” value (liver glutathione; listed as L-isomer compound) was “an increase in liver glutathione occurs”.
